Test results reported in patent US8815772B2, “Fungicidal heterocyclic carboxamides” (E I du Pont de Nemours and Company, priority 2012, dated 2014).
Marks after values point to notes of the source that are not given here.

Columns and labels:
Septoria nodorum = experiment: Test E: Septoria glume blotch, preventive spray on wheat seedlings, visual disease rating; format: in vivo
Excerpt: (§1) A dash (-) indicates no test results.

Septoria tritici = experiment: Test F: wheat leaf blotch, preventive spray on wheat seedlings, visual disease rating; format: in vivo
Excerpt: as §1

cucumber seedlings = experiment: Test I: phytotoxicity to the cucumber seedlings of the test units; format: in vivo; settings: 250 ppm active ingredient applied to soil, 7 days
Protocol: Control of the southern root-knot nematode (Meloidogyne incognita) through contact and/or systemic means was evaluated in test units consisting of small open containers filled with a sandy soil mixture and cucumber seedlings.
Test compounds were formulated using a solution containing 50% acetone and 50% water. Test compounds were applied directly to the soil of the test units at concentrations of 250 or 50 ppm active ingredient. Each test was replicated 3 times. After treatment, the test units were allowed to dry for 1 h, after which time about 250 second-stage juvenile (J2) larvae were pipetted into the soil. The test units were held at 27° C. and watered as needed for 7 days.
Nematocidal efficacy was determined by the amount of root gall formation observed when compared to an untreated control. No gall formation was indicative of 100% nematode control. Gall formation equivalent to that found in the untreated control was indicative of 0% control. No nematode control rating was given to compounds showing significant phytotoxicity.

[1] = tested on: Puccinia recondita f. sp. tritici; experiment: Test G: wheat leaf rust, preventive spray on wheat seedlings, visual disease rating
Excerpt: (§2) General protocol for preparing test suspensions for Tests A-H: the test compounds were first dissolved in acetone in an amount equal to 3% of the final volume and then suspended at the desired concentration (in ppm) in acetone and purified water (50/50 mix by volume) containing 250 ppm of the surfactant Trem® 014 (polyhydric alcohol esters). The resulting test suspensions were then used in Tests A-H. Spraying a 200 ppm test suspension to the point of run-off on the test plants was the equivalent of a rate of 600 g/ha. Unless otherwise indicated, the rating values indicate a 200 ppm test suspension was used.
The test suspension was sprayed to the point of run-off on wheat seedlings. The following day the seedlings were inoculated with a spore suspension of Puccinia recondita f. sp. tritici (the causal agent of wheat leaf rust) and incubated in a saturated atmosphere at 20° C. for 24 h, and then moved to a growth chamber at 20° C. for 6 days, after which time visual disease ratings were made.
(§3) An asterisk “*” next to the rating value indicates a 40 ppm test suspension was used, a double asterisk “**” next to the rating value indicates a 130 ppm test suspension was used.

[2] = tested on: Blumeria graminis f. sp. tritici; experiment: Test H: wheat powdery mildew, preventive spray on wheat seedlings, visual disease rating
Excerpt: General protocol for preparing test suspensions for Tests A-H: the test compounds were first dissolved in acetone in an amount equal to 3% of the final volume and then suspended at the desired concentration (in ppm) in acetone and purified water (50/50 mix by volume) containing 250 ppm of the surfactant Trem® 014 (polyhydric alcohol esters). The resulting test suspensions were then used in Tests A-H. Spraying a 200 ppm test suspension to the point of run-off on the test plants was the equivalent of a rate of 600 g/ha. Unless otherwise indicated, the rating values indicate a 200 ppm test suspension was used. (In Table A, an asterisk “*” next to the rating value indicates a 40 ppm test suspension was used; a double asterisk “**” next to the rating value indicates a 130 ppm.)
The test suspension was sprayed to the point of run-off on wheat seedlings. The following day the seedlings were inoculated with a spore dust of Blumeria graminis f. sp. tritici (also known as Erysiphe graminis f. sp. tritici, the causal agent of wheat powdery mildew) and incubated in a growth chamber at 20° C. for 8 days, after which time visual disease ratings were made.
as §3

Botrytis cinerea = experiment: Test B: tomato botrytis, preventive spray on tomato seedlings, visual disease rating; settings: for Test B rating (disease control): rating without asterisk, 100 = 100% disease control, 0 = no disease control relative to the controls
Excerpt: as §2
The test suspension was sprayed to the point of run-off on tomato seedlings. The following day the seedlings were inoculated with a spore suspension of Botrytis cinerea (the causal agent of tomato botrytis) and incubated in saturated atmosphere at 20° C. for 48 h, and then moved to a growth chamber at 24-27° C. for 2-3 days, after which time visual disease ratings were made.
A dash (-) indicates no test results. An asterisk “*” next to the rating value indicates a 40 ppm test suspension was used, a double asterisk “**” next to the rating value indicates a 130 ppm test suspension was used.

Alternaria solani = experiment: Test C: tomato early blight, preventive spray on tomato seedlings, visual disease rating; format: in vivo; settings: rating without asterisk; 100 = 100% disease control, 0 = no disease control relative to the controls
Excerpt: as §1

Phytophthora infestans = format: in vivo; settings: rating without asterisk; 100 = 100% disease control, 0 = no disease control relative to the controls
Plasmopara viticola = experiment: Test A: grape downy mildew, curative spray on grape seedlings, visual disease rating; format: in vivo; settings: rating without asterisk; 100 = 100% disease control, 0 = no disease control relative to the controls
Excerpt: Upon removal, visual disease ratings were made. […] A dash (-) indicates no test results.

[3] = rating without asterisk, 100 = 100% disease control, 0 = no disease control relative to the controls

With O=C(NCC(F)(F)c1ccc(-n2ccc(C(F)(F)F)n2)cc1Cl)c1ncccc1C(F)(F)F [Compound 150, N-[2-[2-chloro-4-[3-(trifluoromethyl)-1H-pyrazol-1-yl]phenyl]-2,2-difluoroethyl]-3-(trifluoromethyl)-2-pyridinecarboxamide] the “Test E rating (disease control)” value (Septoria nodorum; * 40 ppm test suspension) was 100* %, the “Test F rating (disease control)” value (Septoria tritici; * 40 ppm test suspension) was 100* % and the phytotoxicity (cucumber seedlings) was “no significant phytotoxicity”. The “Test G rating (disease control)” value ([1]; * 40 ppm test suspension) was 0* % and the “Test H rating (disease control)” value ([2]; * 40 ppm test suspension) was 100* %.
With “3-difluoromethyl)-N-[3′,5′-difluoro-4′-(1-methyl-1H-pyrazol-3-yl)[1,1′-biphenyl]-2-yl]-1-methyl-1H-pyrazole [Compound 232]” the “Test G rating (100 = 100% disease control, 0 = no disease control relative to the controls)” value ([1]; no asterisk: standard test suspension, wheat leaf rust) was 100%, the “Test B rating (100 = 100% disease control, 0 = no disease control relative to the controls)” value (Botrytis cinerea; no asterisk: standard test suspension, tomato botrytis) was 81% and the “Test H rating (100 = 100% disease control, 0 = no disease control relative to the controls)” value ([2]; no asterisk: standard test suspension, wheat powdery mildew) was 97%.
In the case of O=C(NCCc1ccc(-n2ccc(C(F)(F)F)n2)cc1)c1ccccc1C(F)(F)F [Compound 5, 2-(trifluoromethyl)-N-[2-[4-[3-(trifluoromethyl)-1H-pyrazol-1-yl]phenyl]ethyl]benzamide], the “Test C rating (disease control)” value (Alternaria solani) is reported as 83%, the “Test D rating (disease control)” value (Phytophthora infestans) is reported as 0% and the “Test E rating (disease control)” value (Septoria nodorum; [3]) is reported as 0%. The “Test F rating (disease control)” value (Septoria tritici; [3]) was 100%, the phytotoxicity (cucumber seedlings) was “no significant phytotoxicity” and the “Test G rating (disease control)” value [1, 3] was 0%. The “Test B rating (disease control)” value (Botrytis cinerea) was 17% and the “Test H rating (disease control)” value [2, 3] was 96%.
Cn1cc(C(=O)Nc2ccccc2-c2cc(F)c(-n3ccc(C(F)(F)F)n3)c(F)c2)c(C(F)F)n1 [Compound 173, 3-(difluoromethyl)-N-[3′,5′-difluoro-4′-[3-(trifluoromethyl)-1H-pyrazol-1-yl][1,1′-biphenyl]-2-yl]-1-methyl-1H-pyrazole-4-carboxamide] was tested, and the “Test A rating (disease control)” value (Plasmopara viticola) was 0%, the “Test D rating (disease control)” value (Phytophthora infestans) was 0% and the “Test E rating (disease control)” value (Septoria nodorum; [3]) was 100%. For the same compound, the “Test F rating (disease control)” value (Septoria tritici; [3]) was 100%, the “Test G rating (disease control)” value [1, 3] was 100% and the “Test B rating (disease control)” value (Botrytis cinerea) was 72%. The “Test H rating (disease control)” value [2, 3] was 100%.
In the case of CC(Cc1ccc(-n2ccc(C(F)(F)F)n2)cc1Cl)NC(=O)c1nccnc1Cl (stereo not drawn) [Compound 1], the “Test D rating (disease control)” value (Phytophthora infestans) is reported as 0%, the “Test E rating (disease control)” value (Septoria nodorum; [3]) is reported as 100% and the “Test F rating (disease control)” value (Septoria tritici; [3]) is reported as 100%. The “Test G rating (disease control)” value [1, 3] was 54%, the “Test B rating (disease control)” value (Botrytis cinerea) was 99% and the “Test H rating (disease control)” value [2, 3] was 100%.
In the case of O=C(Nc1ccccc1-c1cc(F)c(-n2ccc(C(F)(F)F)n2)c(F)c1)c1cccnc1Cl [Compound 170, 2-chloro-N-[3′,5′-difluoro-4′-[3-(trifluoromethyl)-1H-pyrazol-1-yl][1,1′-biphenyl]-2-yl]-3-pyridinecarboxamide], the “Test A rating (disease control)” value (Plasmopara viticola) is reported as 0%, the “Test D rating (disease control)” value (Phytophthora infestans) is reported as 0% and the “Test E rating (disease control)” value (Septoria nodorum; [3]) is reported as 0%. The “Test F rating (disease control)” value (Septoria tritici; [3]) was 100%, the “Test G rating (disease control)” value [1, 3] was 100% and the “Test B rating (disease control)” value (Botrytis cinerea) was 0%. The “Test H rating (disease control)” value [2, 3] was 100%.
For O=C(NCCc1ncc(-n2ccc(C(F)(F)F)n2)cc1Cl)c1ccccc1C(F)(F)F [Compound 85, N-[2-[3-chloro-5-[(3-trifluoromethyl)-1H-pyrazol-1-yl]-2-pyridinyl]ethyl]-2-(trifluoromethyl)benzamide], the “Test A rating (disease control)” value (Plasmopara viticola) was 0%, the “Test D rating (disease control)” value (Phytophthora infestans) was 0% and the “Test E rating (disease control)” value (Septoria nodorum; [3]) was 100%. For the same compound, the “Test F rating (disease control)” value (Septoria tritici; [3]) was 100%, the “Test G rating (disease control)” value [1, 3] was 0% and the “Test B rating (disease control)” value (Botrytis cinerea) was 95%. For the same compound, the “Test H rating (disease control)” value [2, 3] was 100%.
In the case of O=C(NCCc1ccc(-n2ccc(C(F)(F)F)n2)cc1Cl)c1ncccc1C(F)(F)F [Compound 40, N-[2-[2-chloro-4-[3-(trifluoromethyl)-1H-pyrazol-1-yl]phenyl]ethyl]-3-(trifluoromethyl)-2-pyridinecarboxamide], the “Test D rating (disease control)” value (Phytophthora infestans) is reported as 0%, the “Test E rating (disease control)” value (Septoria nodorum; [3]) is reported as 100% and the “Test F rating (disease control)” value (Septoria tritici; [3]) is reported as 100%. For the same compound, the phytotoxicity (cucumber seedlings) was “no significant phytotoxicity”, the “Test G rating (disease control)” value [1, 3] was 0% and the “Test B rating (disease control)” value (Botrytis cinerea) was 66%. The “Test H rating (disease control)” value [2, 3] was 100%.
O=C(Nc1ccccc1-c1cc(F)c(-n2ccc(C(F)(F)F)n2)c(F)c1)c1ncccc1C(F)(F)F [Compound 172, N-[3′,5′-difluoro-4′-[3-(trifluoromethyl)-1H-pyrazol-yl][1,1′-biphenyl]-2-yl]-3-(trifluoromethyl)-2-pyridinecarboxamide] was tested, and the “Test A rating (disease control)” value (Plasmopara viticola) was 0%, the “Test D rating (disease control)” value (Phytophthora infestans) was 0% and the “Test E rating (disease control)” value (Septoria nodorum; [3]) was 100%. For the same compound, the “Test F rating (disease control)” value (Septoria tritici; [3]) was 100%, the “Test G rating (disease control)” value [1, 3] was 100% and the “Test B rating (disease control)” value (Botrytis cinerea) was 65%. The “Test H rating (disease control)” value [2, 3] was 100%.
